Test results published in patent US20240158418A1 (C4 Therapeutics, Inc., priority 2021, published 2024).
Where two headings read alike, the source gives them in different places.

Experiments:
Format in all cases: cell-based
pY1068 EGFR L858R = biological target: T1, pY1068 EGFR L858R (Homo sapiens, UniProt P00533, L858R); experiment: Phospho-EGFR (pY1068) inhibition HTRF, NCI-H3255; settings: 6 hours, read-out: pEGFR IC50
T1 construct: NCI-H3255 (harboring EGFR heterozygous L858R mutation); host or cells: NCI-H3255
Outline: (§1)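 FRET signal from HTRF kits measured phospho-EGFR at pY1068 or total EGFR after 6 h treatment at 37 °C. Compounds ran as 11-point half-log dilutions from 10 μM in duplicate, in cells in phenol red-free RPMI with 10% FBS. Concentrations giving 50% inhibition or degradation were reported as IC50 or DC50.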

[1] = tested on: BaF3 cells expressing EGFR L858R-T790M-C797S; experiment: Ba/F3 EGFR cell viability (CellTiter-Glo), L858R-T790M-C797S; settings: Mus musculus, read-out: CTGlo (GI50)
Text: (§2) RPMI 1640 media, cell culture flasks, and 384-well microplates were purchased from VWR (Radnor, PA, USA). Fetal bovine serum (FBS) was purchased from Life Technologies (Carlsbad, CA, USA) and CellTiter-Glo® was purchased from Promega (Madison, WI, USA). The Ba/F3 parental cell line was purchased from CrownBio (Santa Clara, CA). BaF3 cell lines ectopically expressing the EGFR mutations L858R, L858R-T790M, L858R-C797S, and L858R-T790M-C797S were purchased from CrownBio and EGFR mutations L858R-L718Q, L858R-T790M-L718Q, L858R-L792H, and L858R-T790M-L792H, were purchased from Signosis (Santa Clara, CA).
(§3) Cell viability was assessed based on the quantification of ATP using the CellTiter-Glo® assay (Promega, Madison, WI, USA). To determine the effect of compounds on cell viability, all Ba/F3 cell lines were plated at a cell density of 2000 cells/well in 384-well plates using RPMI 1640+10% FBS and treated with compounds of interest using a 10-point half-log dilution series in duplicate for 72 hours, with the highest dose set at […]. CellTiter-Glo® reagent was then added and luminescence signals were measured using an EnVision™ Multimode plate reader (Perkin Elmer, Santa Clara, CA). For data normalization, cells untreated with the test compounds at Time=72 hours were set to 100% (equivalent to maximal cell growth after 72 hours); cells untreated with the test compounds at Time=0 hours were set to 0% (equivalent to cytostasis); and media-only wells were set to −100% (equivalent to complete cytotoxicity). % Viability was determined by normalizing the signal with positive and DMSO treated negative controls on the same microtiter plate. The half-maximal inhibition of cell growth (GI50) is computed from where the fitted curve crosses 50% while the half-maximal lethal dose (LD50) is computed from where the fitted curve crosses −50%.

[2] = tested on: BaF3 cells expressing EGFR L858R-T790M-L718Q; experiment: Ba/F3 EGFR cell viability (CellTiter-Glo), L858R-T790M-L718Q; settings: Mus musculus, read-out: CTGlo (GI50)
Text: as §2, §3

[3] = tested on: BaF3 cells expressing wild-type EGFR; experiment: Ba/F3 EGFR cell viability (CellTiter-Glo), wild-type EGFR; settings: Mus musculus, Ba/F3 WT EGFR, read-out: CTGlo (GI50)
[4] = biological target: T2, pY1068 EGFR L858R-T790M-C797S (Homo sapiens, UniProt P00533, C797S/L858R/T790M); experiment: Phospho-EGFR (pY1068) inhibition HTRF, NCI-H1975+CS; settings: 6 hours, read-out: pEGFR IC50
T2 construct: generated using CRISPR technology to introduce the additional C797S mutation by Horizon Discovery; host or cells: NCI-H1975+CS (CRISPR knock-in of C797S)
Outline: as §1

EGFR L858R = EGFR L858R (Homo sapiens, UniProt P00533, L858R); experiment: EGFR degradation, Total EGFR (L858R-specific) HTRF, NCI-H3255; design: NCI-H3255 (harboring EGFR heterozygous L858R mutation); host or cells: NCI-H3255; settings: 6 hours
Outline: (§4)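 Cells in RPMI 1640 + 10% FBS treated 6 h at 37°C with compound, 11-point half-log titration from 10 μM top, in duplicate. pY1068 and total EGFR read by HTRF (pan-EGFR antibody for wild-type A431; L858R-specific for mutants); IC50 for phospho inhibition, DC50 for 50% degradation.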

pY1068 EGFR WT = biological target: T3, pY1068 EGFR WT (Homo sapiens, UniProt P00533); experiment: Phospho-EGFR (pY1068) inhibition HTRF, A431; settings: A431 (wild-type), 6 hours; read-out: pEGFR IC50
T3 construct: A431 (harboring EGFR wildtype) was purchased from ATCC; host or cells: A431
Text: (§5) NCI-H1975 (harboring EGFR heterozygous L858R-T790M mutations) and NCI-H3255 (harboring EGFR heterozygous L858R mutation) were purchased from ATCC and NCI, respectively. NCI-H1975+CS (harboring EGFR heterozygous L858R-T790M-C797S mutations) was generated using CRISPR technology to introduce the additional C797S mutation by Horizon Discovery. A431 (harboring EGFR wildtype) was purchased from ATCC. RPMI 1640 no-phenol red medium and fetal bovine serum (FBS) were purchased from Gibco (Grand Island, NY, USA). Cell culture flasks and 384-well microplates were acquired from VWR (Radnor, PA, USA). Phosphorylated (pY1068) EGFR and Total EGFR (using L858R-specific detection antibody and pan-EGFR antibody for EGFR mutant cell lines and EGFR wild-type cell lines, respectively) HTRF assay kits were purchased from Cisbio (Bedford, MA, USA).
Degradation of EGFR protein containing L858R mutation or wild-type was determined based on quantification of FRET signal using a Total EGFR (L858R-specific or pan-EGFR detecting) HTRF assay kit. Phospho-EGFR (pEGFR) inhibition was determined based on quantification of FRET signal using a pY1068 EGFR HTRF assay kit. In separate assay plates, test compounds were added to the 384-well plate from a top concentration of 10 μM with 11 points, half log titration in duplicates. […] FRET signal was acquired on EnVision™ Multilabel Reader (PerkinElmer, Santa Clara, CA, USA). […]

EGFR L858R-T790M-C797S = biological target: T4, EGFR L858R-T790M-C797S (Homo sapiens, UniProt P00533, C797S/L858R/T790M); experiment: EGFR degradation, Total EGFR (L858R-specific) HTRF, NCI-H1975+CS; settings: 6 hours
T4 construct: generated using CRISPR technology to introduce the additional C797S mutation by Horizon Discovery; host or cells: NCI-H1975+CS (CRISPR knock-in of C797S)
Outline: as §4

[5] = tested on: BaF3 cells expressing EGFR L858R-L718Q; experiment: Ba/F3 EGFR cell viability (CellTiter-Glo), L858R-L718Q; settings: Mus musculus, read-out: CTGlo (GI50)
Text: as §2, §3

EGFR WT = biological target: T5, EGFR WT (Homo sapiens, UniProt P00533); experiment: EGFR degradation, Total EGFR (pan-EGFR) HTRF, A431; settings: A431 (wild-type), 6 hours; read-out: tEGFR DC50
T5 construct: A431 (harboring EGFR wildtype) was purchased from ATCC; host or cells: A431
Text: as §5
Degradation of EGFR protein containing L858R mutation or wild-type was determined based on quantification of FRET signal using a Total EGFR (L858R-specific or pan-EGFR detecting) HTRF assay kit. Phospho-EGFR (pEGFR) inhibition was determined based on quantification of FRET signal using a pY1068 EGFR HTRF assay kit. In separate assay plates, test compounds were added to the 384-well plate from a top concentration of 10 μM with 11 points, half log titration in duplicates. For each assay, 12.5 uL of cells suspended in assay media (RPMI 1640 no-phenol red medium+10% FBS) at cell densities indicated for each cell line in Table 8 below were dispensed using a multi-channel pipette to 384-well low volume white HTRF microplates containing a duplicate concentration range of test compounds and DMSO controls. The plates were kept at 37° C. with 5% CO2 for 6 hours and then incubated with either phospho EGFR or Total EGFR HTRF detection antibodies according to the cell line and EGFR mutant being assayed. Cells treated in the absence of the test compound were the negative control. Positive control was set by wells containing all reagents but no cells. FRET signal was acquired on EnVision™ Multilabel Reader (PerkinElmer, Santa Clara, CA, USA). Compound concentration that achieves 50% degradation and inhibition was reported as DC50 and IC50, respectively.

[6] = H3255 (L858R), read-out: tEGFR DC50
[7] = Table 9A, NCI-H3255 cells, Total EGFR HTRF, read-out: H3255 EGFR DC50
[8] = H1975 + CS (L858R-T790M-C797S), read-out: tEGFR DC50
[9] = Table 9A, NCI-H1975+CS cells, Total EGFR HTRF, read-out: H1975+ CS EGFR DC50

EGFR L858R, sequence (P00533 25-1210 L858R): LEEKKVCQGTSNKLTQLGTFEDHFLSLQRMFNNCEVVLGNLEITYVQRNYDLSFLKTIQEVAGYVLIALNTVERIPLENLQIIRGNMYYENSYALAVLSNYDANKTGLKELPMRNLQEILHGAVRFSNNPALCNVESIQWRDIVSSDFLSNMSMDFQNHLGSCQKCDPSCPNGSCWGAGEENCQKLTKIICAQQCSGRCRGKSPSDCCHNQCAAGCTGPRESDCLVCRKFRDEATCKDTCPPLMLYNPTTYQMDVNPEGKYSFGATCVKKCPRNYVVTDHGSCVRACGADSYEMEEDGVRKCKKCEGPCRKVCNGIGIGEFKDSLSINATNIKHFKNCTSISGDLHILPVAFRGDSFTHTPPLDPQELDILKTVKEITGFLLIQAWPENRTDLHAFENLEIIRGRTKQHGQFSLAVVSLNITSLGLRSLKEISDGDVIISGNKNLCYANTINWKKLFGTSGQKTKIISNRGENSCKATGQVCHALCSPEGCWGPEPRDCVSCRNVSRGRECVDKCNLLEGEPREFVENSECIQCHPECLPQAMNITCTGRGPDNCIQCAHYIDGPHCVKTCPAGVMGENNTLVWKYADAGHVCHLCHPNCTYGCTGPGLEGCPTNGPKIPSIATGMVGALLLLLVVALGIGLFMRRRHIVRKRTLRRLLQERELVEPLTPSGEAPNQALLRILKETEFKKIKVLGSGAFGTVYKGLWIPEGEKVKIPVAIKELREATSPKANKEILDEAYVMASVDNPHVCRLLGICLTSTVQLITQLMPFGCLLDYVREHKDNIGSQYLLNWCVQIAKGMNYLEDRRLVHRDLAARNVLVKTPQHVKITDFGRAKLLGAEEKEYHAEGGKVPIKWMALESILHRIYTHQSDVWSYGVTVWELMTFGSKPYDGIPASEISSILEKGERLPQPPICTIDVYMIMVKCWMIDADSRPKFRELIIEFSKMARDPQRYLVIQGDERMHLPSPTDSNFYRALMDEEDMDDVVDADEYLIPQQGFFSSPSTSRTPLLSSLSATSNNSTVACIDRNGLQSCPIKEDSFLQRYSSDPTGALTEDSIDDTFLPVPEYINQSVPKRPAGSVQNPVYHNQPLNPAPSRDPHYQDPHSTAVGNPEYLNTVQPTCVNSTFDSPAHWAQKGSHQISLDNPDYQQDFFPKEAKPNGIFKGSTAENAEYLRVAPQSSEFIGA
T4 sequence (P00533 25-1210 T790M/C797S/L858R): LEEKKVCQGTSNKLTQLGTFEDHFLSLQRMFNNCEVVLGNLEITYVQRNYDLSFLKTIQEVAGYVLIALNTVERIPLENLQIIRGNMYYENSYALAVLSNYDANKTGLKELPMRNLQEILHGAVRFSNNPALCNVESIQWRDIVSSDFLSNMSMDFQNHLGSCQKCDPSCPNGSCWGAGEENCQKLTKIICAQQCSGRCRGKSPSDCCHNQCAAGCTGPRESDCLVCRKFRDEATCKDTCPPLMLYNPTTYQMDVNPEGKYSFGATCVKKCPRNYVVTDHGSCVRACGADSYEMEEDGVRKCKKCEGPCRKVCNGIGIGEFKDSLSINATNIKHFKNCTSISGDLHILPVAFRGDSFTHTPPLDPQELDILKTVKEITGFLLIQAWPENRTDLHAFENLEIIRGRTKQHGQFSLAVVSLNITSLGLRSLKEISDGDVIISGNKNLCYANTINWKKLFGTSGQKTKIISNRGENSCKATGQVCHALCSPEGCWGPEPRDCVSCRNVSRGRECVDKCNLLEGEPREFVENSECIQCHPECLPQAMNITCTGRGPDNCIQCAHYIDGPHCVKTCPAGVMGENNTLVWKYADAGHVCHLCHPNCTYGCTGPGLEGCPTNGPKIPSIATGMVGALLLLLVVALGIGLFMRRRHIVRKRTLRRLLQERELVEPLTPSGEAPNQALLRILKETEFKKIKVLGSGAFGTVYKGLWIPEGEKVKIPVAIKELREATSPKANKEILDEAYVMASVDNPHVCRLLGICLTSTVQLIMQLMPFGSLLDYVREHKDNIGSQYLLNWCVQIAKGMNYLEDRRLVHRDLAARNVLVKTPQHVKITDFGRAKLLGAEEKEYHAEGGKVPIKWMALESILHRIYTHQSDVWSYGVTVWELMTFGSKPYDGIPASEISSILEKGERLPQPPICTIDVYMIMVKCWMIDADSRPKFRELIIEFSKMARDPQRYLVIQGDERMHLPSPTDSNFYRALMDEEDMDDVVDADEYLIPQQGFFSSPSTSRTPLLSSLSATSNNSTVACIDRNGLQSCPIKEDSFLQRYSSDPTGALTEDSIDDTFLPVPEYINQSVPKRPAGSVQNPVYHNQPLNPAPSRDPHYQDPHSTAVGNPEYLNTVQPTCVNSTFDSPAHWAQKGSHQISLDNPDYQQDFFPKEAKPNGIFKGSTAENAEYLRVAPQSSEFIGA
T1 sequence (P00533 25-1210 L858R): as the sequence (P00533 25-1210 L858R) above
T3 sequence (P00533 25-1210): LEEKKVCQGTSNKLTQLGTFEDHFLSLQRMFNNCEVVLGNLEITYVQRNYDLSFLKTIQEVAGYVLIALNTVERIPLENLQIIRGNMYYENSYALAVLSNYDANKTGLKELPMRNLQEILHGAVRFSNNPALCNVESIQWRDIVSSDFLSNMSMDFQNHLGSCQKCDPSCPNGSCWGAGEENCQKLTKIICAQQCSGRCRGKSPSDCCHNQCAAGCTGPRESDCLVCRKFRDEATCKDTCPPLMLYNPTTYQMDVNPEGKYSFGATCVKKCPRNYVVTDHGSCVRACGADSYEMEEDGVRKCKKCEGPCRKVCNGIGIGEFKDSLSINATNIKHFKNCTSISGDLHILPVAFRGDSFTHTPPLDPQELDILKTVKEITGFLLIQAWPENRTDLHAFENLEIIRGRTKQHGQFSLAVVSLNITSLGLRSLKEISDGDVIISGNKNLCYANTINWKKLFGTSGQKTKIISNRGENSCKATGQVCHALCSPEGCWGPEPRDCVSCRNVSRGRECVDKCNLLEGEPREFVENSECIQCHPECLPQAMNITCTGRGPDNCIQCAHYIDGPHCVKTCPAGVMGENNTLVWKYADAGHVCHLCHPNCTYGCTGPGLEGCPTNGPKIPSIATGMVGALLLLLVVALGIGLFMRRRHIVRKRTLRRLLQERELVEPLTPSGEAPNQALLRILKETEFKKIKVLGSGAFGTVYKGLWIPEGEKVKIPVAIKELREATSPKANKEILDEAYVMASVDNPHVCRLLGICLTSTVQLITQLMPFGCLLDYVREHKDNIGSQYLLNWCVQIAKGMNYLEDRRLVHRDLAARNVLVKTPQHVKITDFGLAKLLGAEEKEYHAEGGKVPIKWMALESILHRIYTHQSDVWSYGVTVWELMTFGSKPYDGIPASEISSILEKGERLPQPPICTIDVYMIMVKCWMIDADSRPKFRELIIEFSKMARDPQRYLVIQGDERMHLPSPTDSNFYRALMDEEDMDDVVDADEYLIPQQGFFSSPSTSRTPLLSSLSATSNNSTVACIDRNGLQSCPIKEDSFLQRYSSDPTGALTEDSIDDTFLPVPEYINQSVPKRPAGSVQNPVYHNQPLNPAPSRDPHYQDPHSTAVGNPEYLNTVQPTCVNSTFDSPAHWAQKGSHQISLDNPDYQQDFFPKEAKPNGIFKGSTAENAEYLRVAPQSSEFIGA

`O=C1CC[C@H](Nc2ccc(N3CCC(O)(CC(=O)N4CC5(C4)CN(c4ccc(-c6cc(F)c7c(c6)C(=O)N(C(C(=O)Nc6nccs6)c6ncn8c6CCC8)C7)cc4)C5)CC3)c(F)c2)C(=O)N1` (stereo partly drawn) [Compound 1, 2-(6,7-dihydro-5H-pyrrolo[1,2-c]imidazol-1-yl)-2-[6-[4-[2-[2-[1-[4-[[(3S)-2,6-dioxo-3-piperidyl]amino]-2-fluoro-phenyl]-4-hydroxy-4-piperidyl]acetyl]-2,6-diazaspiro[3.3]heptan-6-yl]phenyl]-4-fluoro-1-oxo-isoindolin-2-yl]-N-thiazol-2-yl-acetamide] was tested, and the IC50 (pY1068 EGFR L858R) was 5 nM, the GI50 [1] was 7 nM and the GI50 [2] was 44 nM. It also gave a GI50 [3] of 1620 nM, an IC50 [4] of 10 nM and a DC50 (EGFR L858R; [6]) of 5 nM. For the same compound, the DC50 (EGFR L858R; [7]) was less than 50 nM, the IC50 (pY1068 EGFR WT) was greater than 10000 nM and the DC50 (EGFR L858R-T790M-C797S; [8]) was 12 nM. It also gave a DC50 (EGFR L858R-T790M-C797S; [9]) of less than 50 nM, a GI50 [5] of 24 nM and a DC50 (EGFR WT) greater than 10000 nM.
For `Cn1nc(N2CCC(=O)NC2=O)c2ccc([C@H]3CCN(CC(=O)N4CC5(C4)CN(c4ccc(-c6cc(F)c7c(c6)C(=O)N(C(C(=O)Nc6nccs6)c6ncn8c6CCC8)C7)cc4)C5)CC3(F)F)cc21` (stereo partly drawn) [Compound 2, 2-(6,7-dihydro-5H-pyrrolo[1,2-c]imidazol-1-yl)-2-[6-[4-[2-[2-[(4R)-4-[3-(2,4-dioxohexahydropyrimidin-1-yl)-1-methyl-indazol-6-yl]-3,3-difluoro-1-piperidyl]acetyl]-2,6-diazaspiro[3.3]heptan-6-yl]phenyl]-4-fluoro-1-oxo-isoindolin-2-yl]-N-thiazol-2-yl-acetamide], the IC50 (pY1068 EGFR L858R) was 8 nM, the GI50 [1] was 5 nM and the GI50 [2] was 22 nM. It also gave a GI50 [3] of 310 nM, an IC50 [4] of 29 nM and a DC50 (EGFR L858R; [6]) of 6 nM. It also gave a DC50 (EGFR L858R; [7]) of less than 50 nM, an IC50 (pY1068 EGFR WT) greater than 10000 nM and a DC50 (EGFR L858R-T790M-C797S; [8]) of 19 nM. It also gave a DC50 (EGFR L858R-T790M-C797S; [9]) of less than 50 nM, a GI50 [5] of 6 nM and a DC50 (EGFR WT) greater than 10000 nM.
